melting point [°C]	Structure (SMILES)
127 to 128	O=C(O)Cc1ccc(OCCCc2cc(-c3ccc(C(F)(F)F)cc3)no2)cc1 [Example 1, [4-(3-{3-[4-(trifluoromethyl)phenyl]-5-isoxazolyl}propoxy)phenyl]acetic acid]
221 to 222	O=C(O)c1ccc(OCCCc2cc(-c3ccc(C(F)(F)F)cc3)no2)cc1 [Example 2, 4-(3-{3-[4-(trifluoromethyl)phenyl]-5-isoxazolyl}propoxy)benzoic acid]
126 to 127	O=C(O)Cc1cccc(OCCCc2cc(-c3ccc(C(F)(F)F)cc3)no2)c1 [Example 3, [3-(3-{3-[4-(trifluoromethyl)phenyl]-5-isoxazolyl}propoxy)phenyl]acetic acid]
133 to 134	O=C(O)c1cccc(OCCCc2cc(-c3ccc(C(F)(F)F)cc3)no2)c1 [Example 4, 3-(3-{3-[4-(trifluoromethyl)phenyl]-5-isoxazolyl}propoxy)benzoic acid]
174 to 175	O=C(O)CCc1ccc(OCCCc2cc(-c3ccc(C(F)(F)F)cc3)no2)cc1 [Example 5, 3-[4-(3-{3-[4-(trifluoromethyl)phenyl]-5-isoxazolyl}propoxy)phenyl]propionic acid]
132 to 133	O=C(O)c1ccccc1OCCCc1cc(-c2ccc(C(F)(F)F)cc2)no1 [Example 6, 2-(3-{3-[4-(trifluoromethyl)phenyl]-5-isoxazolyl}propoxy)benzoic acid]
162 to 163	Cn1nc(OCCCc2cc(-c3ccc(C(F)(F)F)cc3)no2)cc1C(=O)O [Example 7, 1-methyl-3-(3-{3-[4-(trifluoromethyl)phenyl]-5-isoxazolyl}propoxy)-1H-pyrazole-5-carboxylic acid]
145 to 146	O=C(O)c1cc(OCCCc2cc(-c3ccc(C(F)(F)F)cc3)no2)nn1-c1ccccc1 [Example 8, 1-phenyl-3-(3-{3-[4-(trifluoromethyl)phenyl]-5-isoxazolyl}propoxy)-1H-pyrazole-5-carboxylic acid]
195 to 196	Cc1nn(-c2ccc(C(F)(F)F)cn2)cc1COc1ccc(CCC(=O)O)cc1 [Example 9, 3-(4-{3-methyl-1-[5-(trifluoromethyl)-2-pyridyl]-1H-pyrazol-4-ylmethoxy}phenyl)propionic acid]
138 to 139	Cc1nn(-c2ccc(C(F)(F)F)cn2)cc1COc1ccc(OCC(=O)O)cc1 [Example 10, (4-{3-methyl-1-[5-(trifluoromethyl)-2-pyridyl]-1H-pyrazol-4-ylmethoxy}phenoxy)acetic acid]
91 to 92	CCOc1nn(-c2ccc(C(F)(F)F)cn2)cc1CCCOc1ccc(OC(C)(C)C(=O)O)cc1 [Example 18, 2-[4-(3-{3-ethoxy-1-[5-(trifluoromethyl)-2-pyridyl]-1H-pyrazol-4-yl}propoxy)phenoxy]-2-methylpropionic acid]
151 to 152	CCOc1cc(OCc2cn(-c3ccc(C(F)(F)F)cn3)nc2C)ccc1CCC(=O)O [Example 19, 3-(2-ethoxy-4-{3-methyl-1-[5-(trifluoromethyl)-2-pyridyl]-1H-pyrazol-4-ylmethoxy}phenyl)propionic acid]
102 to 103	CC(C)c1nn(-c2ccc(C(F)(F)F)cn2)cc1CCCOc1cccc(CCC(=O)O)c1 [Example 23, 3-[3-(3-{3-isopropyl-1-[5-(trifluoromethyl)-2-pyridyl]-1H-pyrazol-4-yl}propoxy)phenyl]propionic acid]
131 to 132	CC(C)c1nn(-c2ccc(C(F)(F)F)cn2)cc1CCCOc1cc(CCC(=O)O)n(C)n1 [Example 25, 3-[3-(3-{3-isopropyl-1-[5-(trifluoromethyl)-2-pyridyl]-1H-pyrazol-4-yl}propoxy)-1-methyl-1H-pyrazol-5-yl]propionic acid]
141 to 142	CC(C)c1nn(-c2ccc(C(F)(F)F)cn2)cc1COc1cc(CCC(=O)O)n(C)n1 [Example 27, 3-(3-{3-isopropyl-1-[5-(trifluoromethyl)-2-pyridyl]-1H-pyrazol-4-ylmethoxy}-1-methyl-1H-pyrazol-5-yl)propionic acid]
152 to 153	Cc1nn(-c2ccc(C(F)(F)F)cn2)cc1COc1cccc(OC(C)(C)C(=O)O)c1 [Example 32, 2-methyl-2-(3-{3-methyl-1-[5-(trifluoromethyl)-2-pyridyl]-1H-pyrazol-4-ylmethoxy}phenoxy)propionic acid]
88 to 89	CCOc1nn(-c2ccc(C(F)(F)F)cn2)cc1CCCOc1cccc(CCC(=O)O)c1 [Example 33, 3-[3-(3-{3-ethoxy-1-[5-(trifluoromethyl)-2-pyridyl]-1H-pyrazol-4-yl}propoxy)phenyl]propionic acid]
208 to 209	Cc1nn(-c2ccc(C(F)(F)F)cn2)cc1COc1cc(/C=C/C(=O)O)n(C)n1 [Example 37, (E)-3-(1-methyl-3-{3-methyl-1-[5-(trifluoromethyl)-2-pyridyl]-1H-pyrazol-4-ylmethoxy}-1H-pyrazol-5-yl)propenoic acid]
154 to 155	Cc1nn(-c2ccc(C(F)(F)F)cn2)cc1COc1cc(CCC(=O)O)n(C)n1 [Example 38, 3-(1-methyl-3-{3-methyl-1-[5-(trifluoromethyl)-2-pyridyl]-1H-pyrazol-4-ylmethoxy}-1H-pyrazol-5-yl)propionic acid]
80 to 81	CCCc1nn(-c2ccc(C(F)(F)F)cn2)cc1CCCOc1cc(CCC(=O)O)n(C)n1 [Example 45, 3-[1-methyl-3-(3-{3-propyl-1-[5-(trifluoromethyl)-2-pyridyl]-1H-pyrazol-4-yl}propoxy)-1H-pyrazol-5-yl]propionic acid]
100 to 101	CCCc1nn(-c2ccc(C(F)(F)F)cn2)cc1CCCOc1ccccc1CC(=O)O [Example 47, [2-(3-{3-propyl-1-[5-(trifluoromethyl)-2-pyridyl]-1H-pyrazol-4-yl}propoxy)phenyl]acetic acid]
137 to 138	CCOc1nn(-c2ccc(C(F)(F)F)cn2)cc1CCCOc1cc(CCC(=O)O)n(C)n1 [Example 48, 3-[3-(3-{3-ethoxy-1-[5-(trifluoromethyl)-2-pyridinyl]-1H-pyrazol-4-yl}propoxy)-1-methyl-1H-pyrazol-5-yl]propanoic acid]
134 to 135	CCOc1nn(-c2ccc(C(F)(F)F)cn2)cc1CCOc1ccccc1CC(=O)O [Example 57, [2-(2-{3-ethoxy-1-[5-(trifluoromethyl)-2-pyridinyl]-1H-pyrazol-4-yl}ethoxy)phenyl]acetic acid]

Structure (SMILES)	melting point [°C]
O=C(O)CCc1cc(OCCCCc2cc(-c3ccc(C(F)(F)F)cc3)no2)nn1-c1ccccc1 [Example 11, 3-[1-phenyl-3-(4-{3-[4-(trifluoromethyl)phenyl]-5-isoxazolyl}butoxy)-1H-pyrazol-5-yl]propionic acid]	139 to 140
O=C(O)c1ccc(OCCCCc2cc(-c3ccc(C(F)(F)F)cc3)no2)cc1 [Example 12, 4-(4-{3-[4-(trifluoromethyl)phenyl]-5-isoxazolyl}butoxy)benzoic acid]	170 to 171
O=C(O)Cc1ccc(OCCCCc2cc(-c3ccc(C(F)(F)F)cc3)no2)cc1 [Example 13, [4-(4-{3-[4-(trifluoromethyl)phenyl]-5-isoxazolyl}butoxy)phenyl]acetic acid]	125 to 126
O=C(O)CCc1ccc(OCCCCc2cc(-c3ccc(C(F)(F)F)cc3)no2)cc1 [Example 14, 3-[4-(4-{3-[4-(trifluoromethyl)phenyl]-5-isoxazolyl}butoxy)phenyl]propionic acid]	130 to 131
CC(C)(Oc1ccc(OCCCCc2cc(-c3ccc(C(F)(F)F)cc3)no2)cc1)C(=O)O [Example 15, 2-methyl-2-[4-(4-{3-[4-(trifluoromethyl)phenyl]-5-isoxazolyl}butoxy)phenoxy]propionic acid]	103 to 104
O=C(O)Cc1cccc(OCCCCc2cc(-c3ccc(C(F)(F)F)cc3)no2)c1 [Example 16, [3-(4-{3-[4-(trifluoromethyl)phenyl]-5-isoxazolyl}butoxy)phenyl]acetic acid]	134 to 135
O=C(O)Cc1ccccc1OCCCCc1cc(-c2ccc(C(F)(F)F)cc2)no1 [Example 17, [2-(4-{3-[4-(trifluoromethyl)phenyl]-5-isoxazolyl}butoxy)phenyl]acetic acid]	122 to 123
CCOc1cc(OCCCCc2cc(-c3ccc(C(F)(F)F)cc3)no2)ccc1CCC(=O)O [Example 21, 3-[2-ethoxy-4-(4-{3-[4-(trifluoromethyl)phenyl]-5-isoxazolyl}butoxy)phenyl]propionic acid]	105 to 106
CC(C)c1nn(-c2ccc(C(F)(F)F)cn2)cc1CCCCOc1cc(CCC(=O)O)n(C)n1 [Example 50, 3-[3-(4-{3-isopropyl-1-[5-(trifluoromethyl)-2-pyridinyl]-1H-pyrazol-4-yl}butoxy)-1-methyl-1H-pyrazol-5-yl]propanoic acid]	113 to 114
CC(C)c1nn(-c2ccc(C(F)(F)F)cn2)cc1CCCCOc1ccccc1CC(=O)O [Example 52, [2-(4-{3-isopropyl-1-[5-(trifluoromethyl)-2-pyridinyl]-1H-pyrazol-4-yl}butoxy)phenyl]acetic acid]	125 to 126
CC(C)c1nn(-c2ccc(C(F)(F)F)cn2)cc1CCCCOc1ccc(CC(=O)O)cc1 [Example 53, [4-(4-{3-isopropyl-1-[5-(trifluoromethyl)-2-pyridinyl]-1H-pyrazol-4-yl}butoxy)phenyl]acetic acid]	130 to 131
CC(C)c1nn(-c2ccc(C(F)(F)F)cn2)cc1CCCCOc1cccc(OC(C)(C)C(=O)O)c1 [Example 54, 2-[3-(4-{3-isopropyl-1-[5-(trifluoromethyl)-2-pyridinyl]-1H-pyrazol-4-yl}butoxy)phenoxy]-2-methylpropanoic acid]	81 to 82
CC(C)c1nn(-c2ccc(C(F)(F)F)cn2)cc1CCCCOc1ccc(CCC(=O)O)cc1 [Example 55, 3-[4-(4-{3-isopropyl-1-[5-(trifluoromethyl)-2-pyridinyl]-1H-pyrazol-4-yl}butoxy)phenyl]propanoic acid]	144 to 145

From US20060148858A1, “1, 2-Azole derivatives with hypoglycemic and hypolipidemic activity” (priority 2002, published 2006)
